# According to ChEMBL document CHEMBL1139670, “Novel 4-N-substituted aryl pent-2-ene-1,4-dione derivatives of piperazinyloxazolidinones as antibacterials” (2006):
# Calls of active or inactive are those of the source. The rule behind the calls is not given here.
# Legend:
# Format in all cases: functional
# [1] = test system: Enterococcus faecalis; assay: Antibacterial activity against Enterococcus faecalis ATCC 14506
# [2] = test system: Streptococcus pyogenes; assay: Antibacterial activity against Streptococcus pyogenes ATCC 14289
# [3] = test system: Staphylococcus epidermidis; assay: Antibacterial activity against Staphylococcus epidermidis ATCC 155
# [4] = test system: Bacillus pumilus; assay: Antibacterial activity against Bacillus pumilus ATCC 14348
# [5] = test system: Staphylococcus aureus; assay: Antibacterial activity against methicillin-resistant Staphylococcus aureus ATCC 700699
# [6] = test system: Enterococcus faecalis; assay: Antibacterial activity against Enterococcus faecalis ATCC 35550
# [7] = test system: Staphylococcus aureus; assay: Antibacterial activity against Staphylococcus aureus ATCC 9144
# [8] = test system: Staphylococcus aureus; assay: Antibacterial activity against Staphylococcus aureus ATCC 14154
# [9] = test system: Streptococcus pneumoniae; assay: Antibacterial activity against penicillin-resistant Streptococcus pneumoniae ATCC 700904
# [10] = test system: Staphylococcus aureus; assay: Antibacterial activity against Staphylococcus aureus ATCC 25923
# [11] = test system: Staphylococcus aureus; assay: Antibacterial activity against Staphylococcus aureus ATCC 29213
# [12] = test system: Staphylococcus aureus; assay: Antibacterial activity against linezolid-resistant Staphylococcus aureus NRS 119
# [13] = test system: Enterococcus faecalis; assay: Antibacterial activity against vancomycin-resistant Enterococcus faecalis ATCC 700802
SMILES,MIC [1] [µg/mL],MIC [2] [µg/mL],MIC [3] [µg/mL],MIC [4] [µg/mL],MIC [5] [µg/mL],MIC [6] [µg/mL],MIC [7] [µg/mL],MIC [8] [µg/mL],MIC [9],MIC [10] [µg/mL],MIC [11] [µg/mL],MIC [12] [µg/mL],MIC [13] [µg/mL]
CC(=O)NC[C@H]1CN(c2ccc(N3CCN(C(=O)/C=C/C(=O)c4ccc(NC(C)=O)cc4)CC3)c(F)c2)C(=O)O1,1,≤ 0.12,≤ 0.12,0.5,1,0.25,≤ 0.12,≤ 0.12,inactive,0.5,≤ 0.12,> 16,
CC(=O)NC[C@H]1CN(c2ccc(N3CCN(C(=O)/C=C/C(=O)c4cccc5ccccc45)CC3)c(F)c2)C(=O)O1,1,0.5,2,1,8,0.5,4,4,2 µg/mL,2,2,> 16,8
CC(=O)NC[C@H]1CN(c2ccc(N3CCN(C(=O)/C=C/C(=O)c4ccc(Br)cc4)CC3)c(F)c2)C(=O)O1,2,,0.25,0.12,4,2,4,2,2 µg/mL,≤ 0.12,4,> 16,> 16
CC(=O)NC[C@H]1CN(c2ccc(N3CCN(C(=O)CO)CC3)c(F)c2)C(=O)O1 [EPEREZOLID],1,0.5,,1,1,2,2,2,0.5 µg/mL,2,2,> 16,1
CC(=O)NC[C@H]1CN(c2ccc(N3CCOCC3)c(F)c2)C(=O)O1 [LINEZOLID],,0.25,1,2,1,,,,0.25 µg/mL,1,,> 16,
COc1ccc(C(=O)/C=C/C(=O)N2CCN(c3ccc(N4C[C@H](CNC(C)=O)OC4=O)cc3F)CC2)cc1,1,≤ 0.12,0.25,0.5,1,0.5,0.5,≤ 0.12,2 µg/mL,0.5,0.25,> 16,2
CC(=O)NC[C@H]1CN(c2ccc(N3CCN(C(=O)/C=C/C(=O)c4ccccc4)CC3)c(F)c2)C(=O)O1,2,0.25,0.12,1,≤ 0.12,0.5,≤ 0.12,≤ 0.12,≤ 0.12 µg/mL,≤ 0.12,0.25,4,2
CC(=O)/C=C/C(=O)N1CCN(c2ccc(N3C[C@H](CNC(C)=O)OC3=O)cc2F)CC1,4,,0.25,0.5,1,1,1,1,0.5 µg/mL,0.25,,> 16,2
CC(=O)NC[C@H]1CN(c2ccc(N3CCN(C(=O)/C=C/C(=O)[O-])CC3)c(F)c2)C(=O)O1.[Na+],,,> 16,> 16,,> 16,,,,> 16,,,
COc1ccc(C(=O)/C=C/C(=O)N2CCN(c3ccc(N4C[C@H](C/N=C(/C)S)OC4=O)cc3F)CC2)cc1,1,0.25,0.12,0.5,0.5,0.25,≤ 0.12,0.25,1 µg/mL,0.25,≤ 0.12,> 16,
CC(=O)NC[C@H]1CN(c2ccc(N3CCN(C(=O)/C=C/c4ccccc4)CC3)c(F)c2)C(=O)O1,0.5,1,1,0.5,1,1,2,2,0.5 µg/mL,1,2,> 16,0.5
